Data as given in publication PMC9652379, “Safety evaluations of a synthetic antimicrobial peptide administered intravenously in rats and dogs” (Scientific Reports, 2022).
Positions of bridges follow the written chain, without caps; N, C: chain ends. Non-standard residues stand in square brackets, D forms with d. Residues, ends and D or L forms follow the SMILES beside them. Chains are numbered I, II in the order given. βAla = NCCC(=O)O

Tests used:
male rats = assay: Neurological toxicity in rats (Irwin test, body temperature, locomotor activity, body weight); format: in vivo
Procedure: The purpose of this study was to evaluate the neurological side-effects of SET-M33 following a single intravenous injection of 5, 9 and 15 mg/kg and vehicle (6 animals/group). The study was based on subjective observation of central nervous system effects on general behaviour (Irwin test), combined with objective evaluation of body temperature and locomotor activity in male rats[32],[33]. Effects on body weight were also assessed. Again the dose levels were selected on the basis of the DRF study reported above.
Evaluation of SET-M33 neurological toxicity was based on the method described by Irwin[32],[33]. On the day prior to dosing, detailed subjective observation of all animals was made to assess the neurobehavioral and physiological state of untreated rats. After subjective observation, rectal temperature was measured and spontaneous locomotor activity was assessed. On the day of dosing, the animals were treated and then returned to their home cages. […] During these observations, the following parameters were systematically evaluated for each animal using a standard procedure: lethality, restlessness, apathy, writhing, fighting, stereotyped behaviour, tremor, twitches, convulsions, exophthalmos, abnormal respiration, alertness, startle response, loss of righting reflex, abnormal body carriage, abnormal gait, Straub tail, piloerection, pupil diameter, light-pupil response, touch response, fearfulness, pinna reflex, corneal reflex, catalepsy, passivity, aggressiveness, body tone, grip strength, cutaneous blood flow, cyanosis, ptosis, lacrimation, salivation, pain response, motility impairment, grooming, diarrhoea, vocalization, increased urination. Normal attributes of animals (e.g. alertness, body tone etc.) were subjectively scored as 4; enhancement or depression of these attributes by SET-M33 was scored with higher or lower integers, respectively. Attributes normally absent in animals (e.g. abnormal gait, abnormal respiration, tremors etc.) were subjectively scored from 0 (normal) to 8. […] Finally, spontaneous locomotor activity was analysed. […]

beagle dogs = assay: Four-week toxicity study in dogs: necroscopy, organ weights, microscopic findings; format: in vivo, dog; conditions: for Kidney: degeneration/regeneration, tubules, minimal (incidence): 4-week dosing; for Kidney: regeneration, tubules, minimal (incidence): 4-week recovery period
Procedure: These higher weights were correlated microscopically with minimal tubule degeneration/regeneration and minimal interstitial cell infiltrates. There were no other SET-M33-related organ weight changes (Table 6). There were no organ weight changes at recovery sacrifice, or macroscopic findings at terminal and recovery necroscopy. […] The kidney findings included minimal tubule degeneration/regeneration at 1.5 mg/kg/day and 4 mg/kg/day in males, and at 4.0 mg/kg/day in females, and minimal interstitial cell infiltrate in both sexes at a dose of 4.0 mg/kg/day. Degeneration featured vacuolation, cell sloughing and/or tinctorial change, and regeneration was characterized by increased basophilia, nuclear crowding and/or increased mitoses of cortical tubule epithelial cells. Regenerative changes were typically more pronounced than degenerative changes. SET-M33-related microscopic findings in kidney were correlated with higher kidney weights (absolute and relative to body and brain weight) and elevated BUN and creatinine in both sexes at 4.0 mg/kg/day. […] After the 4-week recovery period, kidney interstitial infiltrates cleared completely and tubule degeneration/regeneration resolved almost completely. At the infusion sites, there was complete recovery from vascular/perivascular inflammation and tunica intima hypertrophy/hyperplasia with partial recovery from vascular thrombi and hypertrophy/hyperplasia of the tunica media. Minimal regeneration of cortical tubule epithelial cells, observed in the kidneys of 1 female at a dose of 4.0 mg/kg/day, was considered to be due to a repair process, and a slight thrombus observed at the infusion site (saphenous vein) of another female was also in line with ongoing repair.
Complete macroscopic examination was performed on all animals, including examination of the external surface and all orifices; the external surfaces of the brain and spinal cord; the organs and tissues of the cranial, thoracic, abdominal and pelvic cavities and neck; and the rest of the carcass for macroscopic morphological abnormalities. Necropsy was performed on up to 3 animals/sex/group after treatment for 4 weeks and on 2 animals/sex/group after a 4-week treatment-free recovery period. Organs and tissues were weighed, preserved and examined microscopically. Prior to weighing, organs were carefully dissected and properly trimmed to remove adipose and other contiguous tissue in a uniform manner. Organs were weighed as soon as possible after dissection in order to avoid drying. Paired organs were weighed together. Eyes, optic nerve and testes were initially placed in Modified Davidson’s solution and then kept in 10% neutral buffered formalin (NBF). Lungs and urinary bladder were infused with 10% NBF prior to immersion in a larger volume of the same fixative. All other tissues were preserved in 10% NBF.

SMILES: CC[C@H](C)[C@H](NC(=O)[C@H](CCCCN)NC(=O)[C@@H](N)CCCCN)C(=O)N[C@@H](CCCNC(=N)N)C(=O)N[C@H](C(=O)N[C@@H](CCCNC(=N)N)C(=O)N[C@@H](CC(C)C)C(=O)N[C@@H](CO)C(=O)N[C@@H](C)C(=O)NCCCC[C@H](NC(=O)[C@H](C)NC(=O)[C@H](CO)NC(=O)[C@H](CC(C)C)NC(=O)[C@H](CCCNC(=N)N)NC(=O)[C@@H](NC(=O)[C@H](CCCNC(=N)N)NC(=O)[C@@H](NC(=O)[C@H](CCCCN)NC(=O)[C@@H](N)CCCCN)[C@@H](C)CC)C(C)C)C(=O)NCCCC[C@H](NC(=O)[C@H](CCCCNC(=O)[C@H](C)NC(=O)[C@H](CO)NC(=O)[C@H](CC(C)C)NC(=O)[C@H](CCCNC(=N)N)NC(=O)[C@@H](NC(=O)[C@H](CCCNC(=N)N)NC(=O)[C@@H](NC(=O)[C@H](CCCCN)NC(=O)[C@@H](N)CCCCN)[C@@H](C)CC)C(C)C)NC(=O)[C@H](C)NC(=O)[C@H](CO)NC(=O)[C@H](CC(C)C)NC(=O)[C@H](CCCNC(=N)N)NC(=O)[C@@H](NC(=O)[C@H](CCCNC(=N)N)NC(=O)[C@@H](NC(=O)[C@H](CCCCN)NC(=O)[C@@H](N)CCCCN)[C@@H](C)CC)C(C)C)C(=O)NCCC(=O)O)C(C)C [SET-M33] (I: H-KKIRVRLSAKK[βAla]-OH / II: H-KKIRVRLSAK / III: H-KKIRVRLSA / IV: H-KKIRVRLSA; amide I:10-IV:C, I:11-II:C, II:10-III:C (inferred); N-terminus and C-terminus assumed)
- adverse clinical signs (Irwin test) (male rats; male rats, 5, 9 and 15 mg/kg single iv, 5, 30, 90, 240 min and 24 h post-dose): did not cause any adverse clinical signs
- delayed toxicity and mortality (male rats; male rats, 5, 9 and 15 mg/kg single iv, up to day 7): No delayed effects of toxicity and no mortality
- group mean body temperature lower than vehicle-treated control group (male rats; male rats, 9 and 15 mg/kg single iv, 5 min post-dose): 0.4–0.6 °C
- Infusion site (combined incidence, four sites): haemorrhage, vascular/perivascular, minimal (beagle dogs; dog, in vivo, 0.5 mg/kg/day): 1
- Infusion site (combined incidence, four sites): haemorrhage, vascular/perivascular, moderate (beagle dogs; dog, in vivo, 0.5 mg/kg/day): 0
- Infusion site (combined incidence, four sites): haemorrhage, vascular/perivascular, slight (beagle dogs; dog, in vivo, 0.5 mg/kg/day): 1
- Infusion site (combined incidence, four sites): haemorrhage, vascular/perivascular, total (beagle dogs; dog, in vivo, 0.5 mg/kg/day): 2
- Infusion site (combined incidence, four sites): hypertrophy/hyperplasia, tunica intima, minimal (beagle dogs; dog, in vivo, 0.5 mg/kg/day): 0
- Infusion site (combined incidence, four sites): hypertrophy/hyperplasia, tunica media, minimal (beagle dogs; dog, in vivo, 0.5 mg/kg/day): 0
- Infusion site (combined incidence, four sites): inflammation, vascular/perivascular, moderate (beagle dogs; dog, in vivo, 0.5 mg/kg/day): 0
- Infusion site (combined incidence, four sites): thrombus, blood vessels, high (beagle dogs; dog, in vivo, 0.5 mg/kg/day): 0
- Infusion site (combined incidence, four sites): thrombus, blood vessels, moderate (beagle dogs; dog, in vivo, 0.5 mg/kg/day): 0
- Kidney: infiltrate, interstitium, minimal (incidence) (beagle dogs; dog, in vivo, 0.5 mg/kg/day): 0
- Infusion site (combined incidence, four sites): haemorrhage, vascular/perivascular, slight (beagle dogs; dog, in vivo, 1.5 mg/kg/day): 0
- Infusion site (combined incidence, four sites): hypertrophy/hyperplasia, tunica intima, minimal (beagle dogs; dog, in vivo, 1.5 mg/kg/day): 0
- Infusion site (combined incidence, four sites): hypertrophy/hyperplasia, tunica media, minimal (beagle dogs; dog, in vivo, 1.5 mg/kg/day): 0
- Infusion site (combined incidence, four sites): inflammation, vascular/perivascular, moderate (beagle dogs; dog, in vivo, 1.5 mg/kg/day): 0
- Infusion site (combined incidence, four sites): thrombus, blood vessels, high (beagle dogs; dog, in vivo, 1.5 mg/kg/day): 0
- Infusion site (combined incidence, four sites): thrombus, blood vessels, minimal (beagle dogs; dog, in vivo, 1.5 mg/kg/day): 0
- Infusion site (combined incidence, four sites): thrombus, blood vessels, slight (beagle dogs; dog, in vivo, 1.5 mg/kg/day): 0
- Infusion site (combined incidence, four sites): haemorrhage, vascular/perivascular, moderate (beagle dogs; dog, in vivo, 4 mg/kg/day): 0
- Infusion site (combined incidence, four sites): hypertrophy/hyperplasia, tunica intima, minimal (beagle dogs; dog, in vivo, 4 mg/kg/day): 0
- Infusion site (combined incidence, four sites): hypertrophy/hyperplasia, tunica intima, slight (beagle dogs; dog, in vivo, 4 mg/kg/day): 0
- Infusion site (combined incidence, four sites): hypertrophy/hyperplasia, tunica intima, total (beagle dogs; dog, in vivo, 4 mg/kg/day): 0
- Infusion site (combined incidence, four sites): thrombus, blood vessels, minimal (beagle dogs; dog, in vivo, 4 mg/kg/day): 0
- Infusion site (combined incidence, four sites): thrombus, blood vessels, moderate (beagle dogs; dog, in vivo, 4 mg/kg/day): 5
- Kidney: degeneration/regeneration, tubules, minimal (incidence) (beagle dogs; female dogs, 0.5 mg/kg/day): 0
- Kidney: regeneration, tubules, minimal (incidence) (beagle dogs; female dogs, 0.5 mg/kg/day): 0
- Kidney: degeneration/regeneration, tubules, minimal (incidence) (beagle dogs; female dogs, 1.5 mg/kg/day): 0
- Kidney: regeneration, tubules, minimal (incidence) (beagle dogs; female dogs, 1.5 mg/kg/day): 0
- Kidney: degeneration/regeneration, tubules, minimal (incidence) (beagle dogs; female dogs, 4.0 mg/kg/day): 2
- Kidney: regeneration, tubules, minimal (incidence) (beagle dogs; female dogs, 4.0 mg/kg/day): 1
- Kidney: degeneration/regeneration, tubules, minimal (incidence) (beagle dogs; male dogs, 0.5 mg/kg/day): 2
- Kidney: regeneration, tubules, minimal (incidence) (beagle dogs; male dogs, 0.5 mg/kg/day): 0
- Kidney: degeneration/regeneration, tubules, minimal (incidence) (beagle dogs; male dogs, 1.5 mg/kg/day): 3
- Kidney: regeneration, tubules, minimal (incidence) (beagle dogs; male dogs, 1.5 mg/kg/day): 0
- Kidney: degeneration/regeneration, tubules, minimal (incidence) (beagle dogs; male dogs, 4.0 mg/kg/day): 0
- Kidney: regeneration, tubules, minimal (incidence) (beagle dogs; male dogs, 4.0 mg/kg/day): 0
